Data taken from patent publication US20240043384A1, “INHIBITORS OF PU.1 FOR THE TREATMENT OF DISEASE” (Board of Regents, The University of Texas System, priority 2021, published 2024).
pIC50: −log10 of the molar value.

test system: THP-1 CD14; experiment: THP-1 CD14 Screening Assay; assay type: cell-based; details: Homo sapiens, THP-1, 72 h, THP-1 cells treated with PMA and compound (5-point 10-fold dilution), human CD14 ELISA on media
Description: THP-1 CD14 Screening Assay Protocol:
5×10^4 THP-1 cells were plated per well in a tissue culture-treated 96-well plate. At the time of plating, cells were treated with a final concentration of […] PMA and 0.04% DMSO vehicle, concominant with compounds in a 5-point 10-fold dilution per compound. Cells were treated with PMA and DMSO as a control for differentiation without compound treatment, and with only DMSO as a control for no differentiation and no compound treatment. 500 nM IACS-71432 was added as a control compound across all assay plates.
After incubation at 37° C./5% CO2 for 72 hr, media was collected from the cells and the screening assay was performed using the commercially-available human CD14 SimpleStep ELISA kit from Abcam, according to the following protocol: • 1) ELISA kits were taken out to equilibrate to rt. • 2) Following the protocol listed in the kit, standards were prepared as 1:1 dilutions from 2 ng/ml. • 3) Following the protocol listed in the kit, antibody cocktail was prepared (the volume is contingent on the number of wells required). • 4) 50 μl of standards were added to the appropriate wells, thoroughly mizing the standards before adding to each well. • 5) 25 μl of Sample Diluent (from kit) was added to all sample wells. • 6) Cell plates were centrifuged for 5 min at 300 rcf, with slow acceleration and slow deceleration. • 7) 25 μl of media from cell plates was transferred to assay plates containing standards. • 8) 50 μl of antibody cocktail was added to all of the wells, standards and samples. • 9) Assay plates were sealed tightly and incubated on the plate shaker at 400 rpm for 1 hr at rt. • 10) Wash buffer was prepared following the protocol listed in the kit. • 11) After the hour incubation, assay plates were washed 5 times using 200 μl wash buffer per well per wash. • 12) 100 μl of TMB substrate was added to each well in the dark and incubated on the shaker for 3-4.min, at which point color development was monitored to ensure a robust signal for detection but to avoid oversaturation of signal, for no longer than 10 min. • 13) The absorbance at 607 nm was read on a Perkin Elmer Envision plate reader. • 14) Data was processed using Microsoft Excel and GraphPad Prism.

**Q.** How did the pIC50 turn out when O=S(=O)(NCc1ccncc1)c1ccc(C2=CCC(F)(F)CC2)cc1 [Example 14, 4′,4′-difluoro-N-(pyridin-4-ylmethyl)-2′,3′,4′,5′-tetrahydro-[1,1′-biphenyl]-4-sulfonamide] was run?
**A.** The pIC50 was > 8.30.

**Q.** Cc1ccc(-c2ccc(S(=O)(=O)NCc3ccncc3)cc2)nc1 [Example 42, 4-(5-methylpyridin-2-yl)-N-(pyridin-4-ylmethyl)-benzenesulfonamide] was tested. Which pIC50 did it give?
**A.** Its pIC50 is > 8.30.

**Q.** O=S(=O)(NCc1ccncc1)c1ccc(-c2ccc3ncsc3c2)cc1 [Example 46, 4-(benzo[d]thiazol-6-yl)-N-(pyridin-4-ylmethyl)-benzenesulfonamide] was tested. Which pIC50 did it give?
**A.** The pIC50 was > 8.30.

**Q.** With O=S(=O)(NCc1ccncc1)c1ccc(N2CC3(C2)CC(F)(F)C3)cc1 [Example 34, 4-(6,6-difluoro-2-azaspiro[3.3]heptan-2-yl)-N-(pyridin-4-ylmethyl)-benzenesulfonamide] as the molecule, how does the pIC50 read?
**A.** Its pIC50 is 7.00 to 8.30.

**Q.** Cc1cnccc1-c1ccc(S(=O)(=O)NCc2ccncc2)cc1 [Example 39, 4-(3-methylpyridin-4-yl)-N-(pyridin-4-ylmethyl)-benzenesulfonamide] was tested. Which pIC50 did it give?
**A.** Its pIC50 is > 8.30.

**Q.** With Cc1nc2cc(-c3ccc(S(=O)(=O)NCc4ccncc4)cc3)ccc2o1 [Example 47, 4-(2-methyl-benzo[d]oxazol-5-yl)-N-(pyridin-4-ylmethyl)-benzenesulfonamide] as the molecule, how does the pIC50 read?
**A.** Its pIC50 is > 8.30.

**Q.** O=S(=O)(NCc1ccncc1)c1ccc(N2CCOCC2)cc1 [Example 24, 4-morpholino-N-(pyridin-4-ylmethyl)benzenesulfonamide] was tested. Which pIC50 did it give?
**A.** The pIC50 was 6.30 to 7.00.

**Q.** With O=S(=O)(NCc1ccncc1)c1ccc(-c2ccccc2)cc1 [Example 37, N-(pyridin-4-ylmethyl)-[1,1′-biphenyl]-4-sulfonamide] as the molecule, how does the pIC50 read?
**A.** Its pIC50 is > 8.30.

**Q.** O=S(=O)(NCc1ccncc1)c1ccc(C2CCOC2)cc1 (stereo not shown) [Example 19, N-(pyridin-4-ylmethyl)-4-(tetrahydrofuran-3-yl)-benzenesulfonamide] was tested. Which pIC50 did it give?
**A.** Its pIC50 is 7.00 to 8.30.

**Q.** O=S(=O)(NCc1ccncc1)c1ccc(N2CC3(CCC3)C2)cc1 [Example 33, N-(pyridin-4-ylmethyl)-4-(2-azaspiro[3.3]heptan-2-yl)benzenesulfonamide] was tested. Which pIC50 did it give?
**A.** Its pIC50 is 7.00 to 8.30.

**Q.** With O=S(=O)(NCc1ccncc1)c1ccc(-c2ncccc2Cl)cc1 [Example 43, 4-(3-chloropyridin-2-yl)-N-(pyridin-4-ylmethyl)-benzenesulfonamide] as the molecule, how does the pIC50 read?
**A.** Its pIC50 is > 8.30.

**Q.** How did the pIC50 turn out when CC1(C)CN(c2ccc(S(=O)(=O)NCc3ccncc3)cc2)C1 [Example 32, 4-(3,3-dimethylazetidin-1-yl)-N-[(pyridin-4-yl)methyl]benzene-1-sulfonamide] was run?
**A.** Its pIC50 is 7.00 to 8.30.

**Q.** CN1CC=C(c2ccc(S(=O)(=O)NCc3ccncc3)cc2)CC1 [Example 13, 4-(1-methyl-1,2,3,6-tetrahydropyridin-4-yl)-N-(pyridin-4-ylmethyl)-benzenesulfonamide] was tested. Which pIC50 did it give?
**A.** Its pIC50 is 6.30 to 7.00.

**Q.** How did the pIC50 turn out when O=S(=O)(NCc1ccncc1)c1ccc(C2=CCCC2)cc1 [Example 1, 4-(Cyclopent-1-en-1-yl)-N-(pyridin-4-ylmethyl)benzenesulfonamide] was run?
**A.** The pIC50 was 7.00 to 8.30.

**Q.** With O=S(=O)(NCc1ccncc1)c1ccc(OCC2CCCO2)cc1 (stereo not shown) [Example 11, N-(pyridin-4-ylmethyl)-4-((tetrahydrofuran-2-yl)methoxy)benzenesulfonamide] as the molecule, how does the pIC50 read?
**A.** Its pIC50 is > 8.30.

**Q.** How did the pIC50 turn out when O=S(=O)(NCc1ccncc1)c1ccc(N2CCCC2)cc1 [Example 25, N-(pyridin-4-ylmethyl)-4-(pyrrolidin-1-yl)benzenesulfonamide] was run?
**A.** Its pIC50 is 7.00 to 8.30.

**Q.** O=c1[nH]c2ccc(-c3ccc(S(=O)(=O)NCc4ccncc4)cc3)cc2o1 [Example 62, 4-(2-oxo-2,3-dihydro-benzo[d]oxazol-6-yl)-N-(pyridin-4-ylmethyl)-benzenesulfonamide] was tested. Which pIC50 did it give?
**A.** Its pIC50 is 6.30 to 7.00.

**Q.** O=S(=O)(NCc1ccncc1)c1ccc(C2=CCOCC2)cc1 [Example 12, 4-(3,6-dihydro-2H-pyran-4-yl)-N-(pyridin-4-ylmethyl)-benzenesulfonamide] was tested. Which pIC50 did it give?
**A.** The pIC50 was 7.00 to 8.30.

**Q.** With O=S(=O)(NCc1ccncc1)c1ccc(-c2ccc3cc[nH]c3c2)cc1 [Example 58, 4-(1H-indol-6-yl)-N-(pyridin-4-ylmethyl)-benzenesulfonamide] as the molecule, how does the pIC50 read?
**A.** The pIC50 was > 8.30.

**Q.** O=S(=O)(NCc1ccncc1)c1ccc(-c2ccc3ncoc3c2)cc1 [Example 45, 4-(benzo[d]oxazol-6-yl)-N-(pyridin-4-ylmethyl)-benzenesulfonamide] was tested. Which pIC50 did it give?
**A.** Its pIC50 is > 8.30.

**Q.** With O=S(=O)(NCc1ccncc1)c1ccc(-c2ccc3ocnc3c2)cc1 [Example 48, 4-(1,3-benzoxazol-5-yl)-N-[(pyridin-4-yl)methyl]benzene-1-sulfonamide] as the molecule, how does the pIC50 read?
**A.** The pIC50 was > 8.30.

**Q.** O=S(=O)(NCc1ccncc1)c1ccc(N2CCCC(F)(F)C2)cc1 [Example 27, 4-(3,3-difluoropiperidin-1-yl)-N-(pyridin-4-ylmethyl)-benzenesulfonamide] was tested. Which pIC50 did it give?
**A.** Its pIC50 is 7.00 to 8.30.

**Q.** Nc1cc(CNS(=O)(=O)c2ccc(C3CCCCC3)cc2)ccn1 [Example 9, N-((2-aminopyridin-4-yl)methyl)-4-cyclohexylbenzenesulfonamide] was tested. Which pIC50 did it give?
**A.** Its pIC50 is > 8.30.

**Q.** With O=S(=O)(NCc1ccncc1)c1ccc(N2CCCCC2)cc1 [Example 22, 4-(piperidin-1-yl)-N-(pyridin-4-ylmethyl)-benzenesulfonamide] as the molecule, how does the pIC50 read?
**A.** The pIC50 was 7.00 to 8.30.

**Q.** With O=S(=O)(NCc1ccncc1)c1ccc(N2CCC(F)(F)C2)cc1 [Example 29, 4-(3,3-difluoropyrrolidin-1-yl)-N-(pyridin-4-ylmethyl)-benzenesulfonamide] as the molecule, how does the pIC50 read?
**A.** The pIC50 was 7.00 to 8.30.

**Q.** How did the pIC50 turn out when Cc1cc(-c2ccc(S(=O)(=O)NCc3ccncc3)cc2)ccn1 [Example 40, 4-(2-methylpyridin-4-yl)-N-(pyridin-4-ylmethyl)-benzenesulfonamide] was run?
**A.** The pIC50 was > 8.30.

**Q.** With O=S(=O)(NCc1ccncc1)c1ccc(C2CCCOC2)cc1 (stereo not shown) [Example 17, N-(pyridin-4-ylmethyl)-4-(tetrahydro-2H-pyran-3-yl)-benzenesulfonamide] as the molecule, how does the pIC50 read?
**A.** The pIC50 was > 8.30.

**Q.** CC1(C)CCN(c2ccc(S(=O)(=O)NCc3ccncc3)cc2)C1 [Example 26, 4-(3,3-dimethylpyrrolidin-1-yl)-N-(pyridin-4-yl-methyl)benzenesulfonamide] was tested. Which pIC50 did it give?
**A.** The pIC50 was 7.00 to 8.30.

**Q.** How did the pIC50 turn out when O=S(=O)(Nc1cccc2cnccc12)c1ccc(C2CCCCC2)cc1 [Example 6, 4-Cyclohexyl-N-(isoquinolin-5-yl)benzenesulfonamide] was run?
**A.** Its pIC50 is > 8.30.

**Q.** How did the pIC50 turn out when Cc1n[nH]c2cc(-c3ccc(S(=O)(=O)NCc4ccncc4)cc3)ccc12 [Example 59, 4-(3-methyl-1H-indazol-6-yl)-N-(pyridin-4-ylmethyl)-benzenesulfonamide] was run?
**A.** Its pIC50 is > 8.30.

**Q.** O=S(=O)(Nc1cccc2cnccc12)c1ccc(C2CCOCC2)cc1 [Example 7, N-(Isoquinolin-5-yl)-4-(tetrahydro-2H-pyran-4-yl)enzenesulfonamide] was tested. Which pIC50 did it give?
**A.** Its pIC50 is > 8.30.

**Q.** How did the pIC50 turn out when O=c1[nH]ccc2cc(-c3ccc(S(=O)(=O)NCc4ccncc4)cc3)ccc12 [Example 50, 4-(1-oxo-1,2-dihydro-isoquinolin-6-yl)-N-(pyridin-4-ylmethyl)-benzenesulfonamide] was run?
**A.** Its pIC50 is 6.30 to 7.00.

same assay, conditions: THP-1 cells treated with PMA and compound (5-point 10-fold dilution), 72 hr; human CD14 ELISA on media

**Q.** O=S(=O)(NCc1ccncc1)c1ccc(N2CCCC(F)(F)C2)cc1 [Example 31, 4-(3,3-difluoropiperidin-1-yl)-N-(pyridin-4-ylmethyl)-benzenesulfonamide] was tested. Which pIC50 did it give?
**A.** Its pIC50 is > 8.30.

**Q.** With Cc1nc2cc(-c3ccc(S(=O)(=O)NCc4ccncc4)cc3)ccc2s1 [49 (a), 4-(2-methyl-benzo[d]thiazol-5-yl)-N-(pyridin-4-ylmethyl)-benzenesulfonamide] as the molecule, how does the pIC50 read?
**A.** The pIC50 was > 8.30.
